Measurements as given in BindingDB's records for doi:10.1021/jm0005454 (Cnrs, 2002).
pKi: −log10 of the molar value.

What was measured:
[1] = target: T1, Neprilysin (Oryctolagus cuniculus, UniProt P08049); assay: In Vitro Inhibition of NEP; conditions: pH 7.4; 37 °C
T1 sequence (P08049 whole entry): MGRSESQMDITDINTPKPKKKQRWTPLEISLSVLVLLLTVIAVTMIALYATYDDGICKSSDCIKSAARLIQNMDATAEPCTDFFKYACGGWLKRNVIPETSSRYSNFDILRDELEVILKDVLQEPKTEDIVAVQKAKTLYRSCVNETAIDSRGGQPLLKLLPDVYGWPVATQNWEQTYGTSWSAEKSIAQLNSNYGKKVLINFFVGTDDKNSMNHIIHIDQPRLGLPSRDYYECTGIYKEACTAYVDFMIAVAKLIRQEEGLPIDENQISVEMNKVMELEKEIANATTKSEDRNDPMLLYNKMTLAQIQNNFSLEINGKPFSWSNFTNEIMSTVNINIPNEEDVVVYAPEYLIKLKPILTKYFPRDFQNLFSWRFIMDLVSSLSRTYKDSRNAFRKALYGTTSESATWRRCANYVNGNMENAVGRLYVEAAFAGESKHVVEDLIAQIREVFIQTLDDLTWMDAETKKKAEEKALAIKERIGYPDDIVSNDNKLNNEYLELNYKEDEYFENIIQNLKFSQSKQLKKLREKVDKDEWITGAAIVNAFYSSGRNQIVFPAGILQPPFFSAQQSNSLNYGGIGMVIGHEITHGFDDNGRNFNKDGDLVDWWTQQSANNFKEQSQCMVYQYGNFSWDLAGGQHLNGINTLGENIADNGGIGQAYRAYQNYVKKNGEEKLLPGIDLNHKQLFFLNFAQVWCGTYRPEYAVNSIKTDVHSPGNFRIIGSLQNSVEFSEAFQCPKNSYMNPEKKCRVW
Description: (§1) NEP was preincubated in black 96-well microplates with or without increasing concentrations of inhibitors. DGPA was added, and the reaction was stopped after 1 hr of incubation. The fluorescence was measured at excitation wavelength = 340 nm, emission wavelength = 530 nm.

[2] = target: T2, Angiotensin-converting enzyme (Rattus norvegicus, UniProt P47820); assay: In Vitro Inhibition of NEP
T2 sequence (P47820 whole entry): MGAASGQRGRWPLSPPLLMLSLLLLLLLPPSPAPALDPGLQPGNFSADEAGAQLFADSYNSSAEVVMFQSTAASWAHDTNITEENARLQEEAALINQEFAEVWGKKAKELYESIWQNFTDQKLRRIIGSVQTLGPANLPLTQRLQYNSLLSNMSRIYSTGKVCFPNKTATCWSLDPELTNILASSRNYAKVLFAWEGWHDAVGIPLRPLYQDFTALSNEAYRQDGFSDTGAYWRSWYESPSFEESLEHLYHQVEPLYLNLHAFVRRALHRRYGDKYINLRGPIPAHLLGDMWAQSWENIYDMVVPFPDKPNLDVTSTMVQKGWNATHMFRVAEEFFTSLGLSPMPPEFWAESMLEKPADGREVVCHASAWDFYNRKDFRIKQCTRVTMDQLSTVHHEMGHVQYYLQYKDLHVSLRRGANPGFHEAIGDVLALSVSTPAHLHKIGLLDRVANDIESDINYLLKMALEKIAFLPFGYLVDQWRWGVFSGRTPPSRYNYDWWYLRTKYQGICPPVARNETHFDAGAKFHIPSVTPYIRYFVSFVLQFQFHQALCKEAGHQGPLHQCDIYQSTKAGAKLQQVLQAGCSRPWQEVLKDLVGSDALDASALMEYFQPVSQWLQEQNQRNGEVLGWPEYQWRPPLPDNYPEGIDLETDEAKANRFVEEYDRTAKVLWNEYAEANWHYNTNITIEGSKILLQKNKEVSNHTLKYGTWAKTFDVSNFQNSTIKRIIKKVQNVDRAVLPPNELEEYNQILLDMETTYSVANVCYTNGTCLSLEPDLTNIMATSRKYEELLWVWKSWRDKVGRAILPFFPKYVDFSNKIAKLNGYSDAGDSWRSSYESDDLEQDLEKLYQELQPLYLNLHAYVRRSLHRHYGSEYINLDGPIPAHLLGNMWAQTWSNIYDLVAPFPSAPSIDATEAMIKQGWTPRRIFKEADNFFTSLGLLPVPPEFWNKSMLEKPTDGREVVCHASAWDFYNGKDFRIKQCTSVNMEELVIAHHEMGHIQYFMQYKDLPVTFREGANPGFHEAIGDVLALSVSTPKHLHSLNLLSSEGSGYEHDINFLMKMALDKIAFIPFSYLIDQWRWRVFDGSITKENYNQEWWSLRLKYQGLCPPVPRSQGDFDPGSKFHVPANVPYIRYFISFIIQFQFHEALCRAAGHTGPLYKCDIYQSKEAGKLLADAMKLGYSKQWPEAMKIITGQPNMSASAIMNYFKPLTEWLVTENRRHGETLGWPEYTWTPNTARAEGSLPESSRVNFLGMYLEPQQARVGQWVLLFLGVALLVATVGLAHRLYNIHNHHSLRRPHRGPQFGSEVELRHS
Description: as §1

- pKi [1]: 8.10
- pKi [2]: 7.59
Compound: O=C(O)[C@H](Cc1c[nH]c2ccccc12)NC(=O)[C@@H](CS)[C@@H]1CCCc2ccccc21 [(2S)-3-(1H-indol-3-yl)-2-[(2S)-3-sulfanyl-2-[(1S)-1,2,3,4-tetrahydronaphthalen-1-yl]propanamido]propanoic acid]
